ChEMBL document CHEMBL1201862, “PubChem BioAssay data set” (2004)
Calls of active or inactive are those of the source.

Legend:
[1] = molecular target: G-protein coupled receptor 183 (Homo sapiens, UniProt P32249); test: SAR confirmation of small molecule antagonists of the EBI2 receptor via a luminescent beta-arrestin assa.; type: functional
[2] = molecular target: T1, Probable nicotinate-nucleotide adenylyltransferase (Staphylococcus aureus (strain N315), UniProt P65502); type: functional, Staphylococcus aureus subsp. aureus N315; details: read-out: IC50_Mean;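 on IC50 Mean: confirmatory dose-response retesting of NadD inhibitor hits first found in an ultra-high-throughput screen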
[3] = molecular target: T1, Probable nicotinate-nucleotide adenylyltransferase; type: functional, Staphylococcus aureus subsp. aureus N315
[4] = molecular target: DNA repair and recombination protein RAD54-like (Homo sapiens, UniProt Q92698); test: RAD54 Holliday junction migration blockers – biochemical, fluorescence, cherry-picked samples, dose series, confirmation (AID 651657); type: functional
[5] = HIV-1 AD8 envelope cell-cell fusion blockers – cherry-pick, dose response (AID 652062); type: functional, cell-based;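 further: luciferase signal from cell-cell fusion driven by HIV-1 clade B AD8 Env; potency is for inhibitors of fusion seen as a drop in luminescence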
HEK293 = test: EBV LMP1 TES2 canonical NF-kB signalling blockers – cell-based, HEK293, luciferase, cherry-pick, dose response (AID 588343); type: functional; details: Homo sapiens
[6] = alpha-synuclein stem-loop luciferase translation blockers – H4 neuroglioma cells, luminescence, confirmation (AID 1988); type: functional, cell-based
Cysteine protease ATG4B = molecular target: T2, Cysteine protease ATG4B (Homo sapiens, UniProt Q9Y4P1); type: functional;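 further: Fluorescence-based dose-response confirmation assay measuring inhibition of ATG4B activity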
T2 sequence (Q9Y4P1 whole entry): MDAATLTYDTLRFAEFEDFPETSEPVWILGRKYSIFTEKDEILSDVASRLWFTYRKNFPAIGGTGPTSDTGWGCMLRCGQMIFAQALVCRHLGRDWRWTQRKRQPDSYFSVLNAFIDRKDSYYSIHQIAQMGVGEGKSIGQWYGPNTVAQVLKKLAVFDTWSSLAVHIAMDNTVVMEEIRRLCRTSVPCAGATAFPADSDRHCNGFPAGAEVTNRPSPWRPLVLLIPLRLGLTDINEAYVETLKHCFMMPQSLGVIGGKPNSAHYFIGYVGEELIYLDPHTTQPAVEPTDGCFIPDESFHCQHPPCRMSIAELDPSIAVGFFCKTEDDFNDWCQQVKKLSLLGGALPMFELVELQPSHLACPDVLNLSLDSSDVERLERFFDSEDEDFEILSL

Phospholipase A2 = Phospholipase A2 (Homo sapiens, UniProt P04054); type: functional;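 further: confirmatory dose-response counterscreen on phospholipase A2, testing hits that came from an ultra-high-throughput screen for ATG4B inhibitors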
[7] = blockers of HIV-1 ZM109 envelope-driven cell-cell fusion – HeLa effector, CEM target cells, luciferase, cherry-pick, dose response (AID 652058); type: functional, cell-based;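 further: luciferase signal from HIV-1 Env mediated cell-cell fusion of effector and target cells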
[8] = Luminescence Cell-Based Dose Response HTS to Identify Inhibitors of 5'UTR Stem-Loop Driven Prion Protein mRNA Translation in H4 Neuroglioblastoma Cells. [Related pubchem assays: 1827 (Project Summary), 1813 (Primary HTS)]; type: functional
[9] = luciferase reporter signal suppression in cells – H4 neuroglioma cells, luminescence, dose response (AID 1990); type: functional, cell-based
[10] = off-target signal loss in HeLa-CEM21 co-culture – HeLa F-luc CTL cells, cherry-picked, counter-screen for HIV-1 Env fusion inhibitor project, dose response (AID 652040); type: functional, cell-based;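 further: potency for signal decrease marking cytotoxic or nonspecific inhibition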
Interleukin-8 = Interleukin-8 (Homo sapiens, UniProt P10145); test: Dose Response confirmation of uHTS small molecule hits for cystic fibrosis induced NFkb Inhibitors in a PAF-induced IL8 counterscreen.; type: functional; details: read-out: IC50_Mean
[11] = blockers of HIV-1 envelope-mediated cell-cell fusion – cherry-pick, dose response (AID 652057); type: functional, cell-based
[12] = OVCAR-3 cell viability loss – plate reader, dry powder samples, PAX8 inhibitor project, dose response (AID 743044); type: functional, cell-based
[13] = IGROV1 cell killing – plate reader, dry powder samples, PAX8 inhibitor project, dose response (AID 743043); type: functional, cell-based; details: IGROV-1
Paired box protein Pax-8 = Paired box protein Pax-8 (Homo sapiens, UniProt Q06710); test: PAX8 transcriptional activity inhibition in RMG-I – RMG-I cells, luciferase, cherry-pick, dose response (AID 687027); type: functional, cell-based;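 further: luciferase reporter driven by Pax8 target thyroperoxidase promoter measured by SteadyGlo luminescence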
[14] = cytotoxicity toward HCT116 cells – cell-based, CellTiter-Glo luminescence, IC50, dose response (AID 1117332); type: functional; details: HCT-116
[15] = cytotoxicity toward HT-29 cells – cell-based, CellTiter-Glo luminescence, IC50, dose response (AID 1117330); type: functional
[16] = HCT116 cell viability decrease, GSK3B pretreatment – CellTiter-Glo, IC50, dose response (AID 1117339); type: functional; details: HCT-116
[17] = rise of 4N DNA cells, HeLa – IC50, dose response (AID 1117351); type: functional, cell-based
[18] = CellTiter-Glo luminescence survival assay, SW480 colon tumor line, concentration-response curve, half-maximal inhibitory concentration (AID 1117338); type: functional
[19] = RKO cell viability reduction, dose response, CellTiter-Glo luminescence (AID 1117322); type: functional
[20] = cytotoxicity toward Colo320 cells – cell-based, CellTiter-Glo luminescence, IC50, dose response (AID 1117334); type: functional; details: COLO 320
[21] = Reduced DLD-1 viability, concentration-response, CellTiter-Glo luminescence (AID 1117352); type: functional
[22] = rise of 2N DNA cells, HeLa – IC50, dose response (AID 1117349); type: functional, cell-based
[23] = Dd2 parasite growth inhibition in erythrocytes – SYBR Green, dry powder samples, set 9, dose response (AID 1159568); type: functional, cell-based
[24] = potency of ADAM10 substrate cleavage blockers – biochemical, QFRET, dose response (AID 743254);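 further: ADAM10 enzyme with the DM2 quenched FRET peptide as substrate; EDANS fluorescence gain as the protease cuts the substrate; inhibitor potency against ADAM10 proteolytic activity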
[25] = molecular target: Disintegrin and metalloproteinase domain-containing protein 17 (Homo sapiens, UniProt P78536); test: inhibition of ADAM17 substrate cleavage – biochemical, quenched FRET substrate, counter-screen for ADAM10 exosite inhibitor project, dose response (AID 743253)
[26] = molecular target: Luciferin 4-monooxygenase (Photinus pyralis, UniProt P08659); test: inhibition of purified Photinus pyralis luciferase – biochemical, luminescence, dose response (AID 1891)
[27] = Luminescence Cell-Based Dose Confirmation HTS to Identify Inhibitors of Platelet Dense Granule Release. [Related pubchem assays: 1663 (Primary HTS), 1678 (Summary of Project)]; type: functional
Protein Tat = Protein Tat (Human immunodeficiency virus type 1 group M subtype B (isolate HXB2)(HIV-1), UniProt P04608); type: functional;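 further: tat binding to TAR RNA read out by fluorescence polarization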
[28] = bead-based luminescence quenchers, dual-tagged ARNT – biochemical, AlphaScreen, cherry-pick, artefact control for ARNT-TACC3 interaction inhibitor project, dose response (AID 651705); type: functional;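 further: AlphaScreen bead proximity signal that flags compounds interfering with the detection technology; potency reflects signal decrease which marks the compound as an assay artifact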
[29] = molecular target: T3, Oxysterols receptor LXR-beta (Homo sapiens, UniProt P55055); type: functional, cell-based;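 further: agonist activity at LXR measured by a cell-based luminescence readout across a dose range, run as a counterscreen for daf-12 agonists; HEK293 cells with Gal4-LXR fusion and GAL4-driven luciferase reporter; potency for activation of Gal4-LXR reporter so compounds are agonists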
T3 sequence (P55055 whole entry): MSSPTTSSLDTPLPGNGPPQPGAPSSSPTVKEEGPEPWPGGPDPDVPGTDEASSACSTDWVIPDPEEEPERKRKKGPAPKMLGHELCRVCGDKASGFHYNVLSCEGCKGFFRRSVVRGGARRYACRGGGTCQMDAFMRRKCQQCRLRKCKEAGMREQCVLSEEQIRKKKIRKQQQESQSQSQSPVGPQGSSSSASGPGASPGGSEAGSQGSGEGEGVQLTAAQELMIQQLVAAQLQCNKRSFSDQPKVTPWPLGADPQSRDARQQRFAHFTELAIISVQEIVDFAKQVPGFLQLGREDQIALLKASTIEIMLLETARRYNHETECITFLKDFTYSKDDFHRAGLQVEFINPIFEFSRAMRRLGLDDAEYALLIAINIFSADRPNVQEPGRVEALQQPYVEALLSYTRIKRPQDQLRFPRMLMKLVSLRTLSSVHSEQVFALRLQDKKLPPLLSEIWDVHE

Kallikrein-7 = Kallikrein-7 (Homo sapiens, UniProt P49862); test: Fluorescence Intensity-based biochemical primary high throughput dose response assay to identify activators of kallikrein-7 (K7) zymogen.
Chain of Kallikrein-7 (P49862 whole entry): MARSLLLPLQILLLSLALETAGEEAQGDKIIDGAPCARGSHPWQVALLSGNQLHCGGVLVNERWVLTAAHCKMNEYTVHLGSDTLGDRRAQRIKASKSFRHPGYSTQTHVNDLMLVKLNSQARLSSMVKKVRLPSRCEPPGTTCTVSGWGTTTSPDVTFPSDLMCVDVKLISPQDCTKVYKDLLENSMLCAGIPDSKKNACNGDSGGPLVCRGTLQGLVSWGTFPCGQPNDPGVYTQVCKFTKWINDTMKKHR

T1 sequence (P65502 whole entry): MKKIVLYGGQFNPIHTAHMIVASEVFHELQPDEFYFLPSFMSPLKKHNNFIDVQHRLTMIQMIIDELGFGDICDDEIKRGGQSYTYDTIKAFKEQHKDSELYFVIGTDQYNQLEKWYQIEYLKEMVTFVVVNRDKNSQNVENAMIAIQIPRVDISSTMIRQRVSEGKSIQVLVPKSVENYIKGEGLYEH
Chain of Disintegrin and metalloproteinase domain-containing protein 17 (P78536 whole entry, the tested form may be a part): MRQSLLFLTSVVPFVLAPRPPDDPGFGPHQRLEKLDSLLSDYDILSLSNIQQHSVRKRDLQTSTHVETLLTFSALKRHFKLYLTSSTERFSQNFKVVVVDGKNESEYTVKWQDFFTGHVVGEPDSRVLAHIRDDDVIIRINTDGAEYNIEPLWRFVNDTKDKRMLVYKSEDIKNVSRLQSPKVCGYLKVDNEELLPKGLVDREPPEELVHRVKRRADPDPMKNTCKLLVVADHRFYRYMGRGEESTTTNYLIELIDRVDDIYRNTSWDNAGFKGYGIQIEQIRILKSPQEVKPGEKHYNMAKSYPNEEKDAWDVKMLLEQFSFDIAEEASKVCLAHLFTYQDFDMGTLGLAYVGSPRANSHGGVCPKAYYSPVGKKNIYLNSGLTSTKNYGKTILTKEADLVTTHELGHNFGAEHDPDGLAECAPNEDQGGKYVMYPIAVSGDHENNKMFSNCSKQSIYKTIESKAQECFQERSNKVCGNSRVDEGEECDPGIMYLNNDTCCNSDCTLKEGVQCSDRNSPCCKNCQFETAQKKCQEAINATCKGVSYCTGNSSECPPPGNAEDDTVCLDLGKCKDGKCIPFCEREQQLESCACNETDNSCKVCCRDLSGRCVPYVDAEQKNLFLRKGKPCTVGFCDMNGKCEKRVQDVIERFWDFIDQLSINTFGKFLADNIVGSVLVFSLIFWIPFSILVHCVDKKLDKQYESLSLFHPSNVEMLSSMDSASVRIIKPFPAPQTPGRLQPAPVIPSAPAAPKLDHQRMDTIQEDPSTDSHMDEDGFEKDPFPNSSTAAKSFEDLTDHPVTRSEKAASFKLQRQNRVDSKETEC
Chain of Paired box protein Pax-8 (Q06710 whole entry): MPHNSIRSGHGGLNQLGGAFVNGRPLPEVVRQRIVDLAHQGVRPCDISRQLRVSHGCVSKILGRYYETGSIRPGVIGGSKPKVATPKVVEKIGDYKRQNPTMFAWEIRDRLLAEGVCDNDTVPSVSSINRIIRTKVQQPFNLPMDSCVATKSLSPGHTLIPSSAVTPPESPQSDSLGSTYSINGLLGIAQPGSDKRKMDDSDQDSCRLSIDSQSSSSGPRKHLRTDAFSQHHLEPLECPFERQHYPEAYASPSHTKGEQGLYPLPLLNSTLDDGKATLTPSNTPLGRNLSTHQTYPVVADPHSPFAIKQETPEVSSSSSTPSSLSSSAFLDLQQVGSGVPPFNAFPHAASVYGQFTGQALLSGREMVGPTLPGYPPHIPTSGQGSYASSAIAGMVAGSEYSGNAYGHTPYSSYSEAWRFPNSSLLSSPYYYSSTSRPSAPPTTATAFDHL
Chain of Interleukin-8 (P10145 whole entry, the tested form may be a part): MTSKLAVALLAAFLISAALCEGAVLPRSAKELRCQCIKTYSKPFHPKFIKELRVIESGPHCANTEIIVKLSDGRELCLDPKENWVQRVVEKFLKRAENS
Chain of Luciferin 4-monooxygenase (P08659 whole entry): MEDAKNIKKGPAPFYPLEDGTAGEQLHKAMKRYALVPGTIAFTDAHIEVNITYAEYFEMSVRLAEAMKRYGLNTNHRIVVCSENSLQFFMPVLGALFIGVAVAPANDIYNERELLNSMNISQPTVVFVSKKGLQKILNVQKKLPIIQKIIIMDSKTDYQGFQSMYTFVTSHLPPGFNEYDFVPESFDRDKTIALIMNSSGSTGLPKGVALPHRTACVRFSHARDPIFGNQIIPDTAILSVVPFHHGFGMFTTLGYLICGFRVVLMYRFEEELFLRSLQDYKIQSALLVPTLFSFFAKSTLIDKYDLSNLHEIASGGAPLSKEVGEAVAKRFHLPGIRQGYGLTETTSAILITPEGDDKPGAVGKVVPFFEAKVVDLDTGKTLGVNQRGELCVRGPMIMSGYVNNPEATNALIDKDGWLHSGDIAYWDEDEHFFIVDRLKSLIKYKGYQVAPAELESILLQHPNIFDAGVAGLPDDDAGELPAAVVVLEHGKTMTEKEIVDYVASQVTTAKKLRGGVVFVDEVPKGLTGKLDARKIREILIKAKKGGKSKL
Chain of DNA repair and recombination protein RAD54-like (Q92698 whole entry, the tested form may be a part): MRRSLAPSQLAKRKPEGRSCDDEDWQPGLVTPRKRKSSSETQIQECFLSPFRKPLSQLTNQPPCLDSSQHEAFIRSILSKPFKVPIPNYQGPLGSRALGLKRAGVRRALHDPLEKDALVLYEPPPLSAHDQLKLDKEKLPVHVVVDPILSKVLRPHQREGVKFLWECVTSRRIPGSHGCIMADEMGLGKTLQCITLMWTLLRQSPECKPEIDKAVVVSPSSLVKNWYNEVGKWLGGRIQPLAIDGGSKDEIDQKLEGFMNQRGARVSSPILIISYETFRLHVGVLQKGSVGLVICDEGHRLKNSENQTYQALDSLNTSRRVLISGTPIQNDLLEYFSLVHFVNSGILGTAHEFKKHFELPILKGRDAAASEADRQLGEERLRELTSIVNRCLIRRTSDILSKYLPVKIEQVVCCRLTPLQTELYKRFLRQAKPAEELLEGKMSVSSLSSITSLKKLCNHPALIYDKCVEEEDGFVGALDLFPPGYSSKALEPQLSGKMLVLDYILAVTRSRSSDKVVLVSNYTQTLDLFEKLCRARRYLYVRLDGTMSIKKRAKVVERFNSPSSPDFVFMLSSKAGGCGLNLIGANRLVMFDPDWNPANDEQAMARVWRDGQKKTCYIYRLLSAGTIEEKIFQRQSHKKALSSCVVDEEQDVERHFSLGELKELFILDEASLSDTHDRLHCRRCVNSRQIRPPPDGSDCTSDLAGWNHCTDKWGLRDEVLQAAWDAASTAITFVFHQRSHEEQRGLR
Chain of Protein Tat (P04608 whole entry): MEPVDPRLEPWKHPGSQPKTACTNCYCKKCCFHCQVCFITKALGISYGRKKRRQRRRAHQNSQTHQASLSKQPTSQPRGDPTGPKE
Chain of G-protein coupled receptor 183 (P32249 whole entry): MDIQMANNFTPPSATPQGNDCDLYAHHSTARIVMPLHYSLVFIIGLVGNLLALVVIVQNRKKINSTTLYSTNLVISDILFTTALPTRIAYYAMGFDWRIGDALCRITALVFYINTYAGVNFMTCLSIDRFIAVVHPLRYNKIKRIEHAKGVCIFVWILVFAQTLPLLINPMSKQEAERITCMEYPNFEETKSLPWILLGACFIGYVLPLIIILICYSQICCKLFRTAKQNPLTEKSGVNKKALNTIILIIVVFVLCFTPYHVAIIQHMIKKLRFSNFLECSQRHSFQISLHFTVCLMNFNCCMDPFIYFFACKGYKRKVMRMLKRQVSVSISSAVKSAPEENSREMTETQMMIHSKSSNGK
Chain of Phospholipase A2 (P04054 whole entry, the tested form may be a part): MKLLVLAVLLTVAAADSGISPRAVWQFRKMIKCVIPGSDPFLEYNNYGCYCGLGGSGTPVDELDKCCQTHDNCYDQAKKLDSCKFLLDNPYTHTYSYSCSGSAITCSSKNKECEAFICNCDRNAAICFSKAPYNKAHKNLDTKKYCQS

## O=C(/C=C/c1cc(Br)ccc1F)N1CCN(S(=O)(=O)c2ccc(Br)cc2)CC1
[1]
  IC50: 0.743 µM (active)

## Nc1nc(COc2ccccc2C=O)nc(Nc2ccccc2)n1
[2]
  IC50: 52.1 µM (active)
[3]
  IC50: 36.7 µM (active)

## CCOC(=O)c1cnc2c(C)c(Cl)ccc2c1NCCCN1CCOCC1
[4]
  AC50: 8.62 µM (active)

## NC(=O)c1sc2nc3c(c(-c4ccccc4)c2c1N)CCC3
[5]
  AC50: 1.55 µM (active)
HEK293
  AC50: 14.6 µM (active)
[6]
  EC50: 16.6 µM (active)
Cysteine protease ATG4B
  IC50: 12.3 µM (active)
Phospholipase A2
  IC50: 8.38 µM (active)
[7]
  AC50: 0.736 µM (active)
[8]
  EC50: 6.39 µM (active)
[9]
  EC50: 25.6 µM (active)
[10]
  AC50: 10.2 µM (active)
Interleukin-8
  IC50: 15.3 µM (inactive)
[11]
  AC50: 1.87 µM (active)

## Cc1ccc(S(=O)(=O)Nc2ccc3c(c2)C(=O)N([C@H](C)CO)C[C@@H](C)[C@@H](CN(C)Cc2ccc(C(F)(F)F)cc2)OCCCC[C@H](C)O3)cc1
[12]
  AC50: 18.1 µM (active)
[13]
  AC50: 43.5 µM (active)
Paired box protein Pax-8
  AC50: 4.18 µM (active)

## COc1cc(NCc2ccc3nc(N)nc(N)c3c2C)cc(OC)c1OC
[14]
  IC50: 0.0231 µM (active)
[15]
  IC50: 0.0212 µM (active)
[16]
  IC50: 0.00392 µM (active)
[17]
  IC50: > 10 µM (inactive)
[18]
  IC50: 0.0591 µM (active)
[19]
  IC50: 0.00272 µM (active)
[20]
  IC50: 0.386 µM (active)
[21]
  IC50: 0.195 µM (active)
[22]
  IC50: > 10 µM (inactive)

## C[C@H](CO)N1C[C@H](C)[C@H](CN(C)S(=O)(=O)c2ccc(F)cc2)OCCCC[C@H](C)Oc2ccc(N(C)C)cc2C1=O
[23]
  AC50: 5.45 µM (active)

## O=C(CSc1nnc(-c2cccs2)n1Cc1ccco1)Nc1ccc(Oc2ccccc2)cc1
[24]
  IC50: > 69.5 µM (inactive)
[25]
  IC50: > 69.5 µM (inactive)

## O=C(NC1CCCC1)C(c1ccco1)N(Cc1ccccc1)C(=O)c1csnn1 (stereo unspecified)
[26]
  EC50: > 112 µM (not active)
[27]
  EC50: > 112 µM (not active)
Protein Tat
  IC50: > 100 µM (active)

## COc1ccc(Nc2nnc(-c3ccc(C(N)=O)cc3)c3ccccc23)cc1
[28]
  AC50: 104 µM (active)

## Cc1ccc(Nc2ncccc2C(N)=O)cc1[N+](=O)[O-]
[29]
  EC50: > 67.6 µM (inactive)

## COCCN1Cc2cc(O)n3c(nc4ccccc43)c2C1=N
Kallikrein-7
  EC50: > 69.5 µM (inactive)
